The record followed here is patent publication US20250223560A1, “NOX4 INHIBITOR COMPOSITIONS AND METHODS FOR REGENERATION OF DYSTROPHIC MUSCLE” (FULCRUM THERAPEUTICS, INC., priority 2022, published 2025).

Read-outs that look alike come from different tables or passages of the source.

Assay [1] deals with mesenchymal stem cells. In words: Phalloidin (F-actin) / alpha-SMA staining of treated mesenchymal stem cells. Type of assay: cell-based, human. The conditions noted are these: 1 μM. On the procedure:
(§1) Bone Marrow Derived Mesenchymal Stem Cells, human (BM-MSC, ATCC PCS-500-012) were cultured in medium composed of Mesenchymal Stem Cell Basal Medium foe Adipose, Umbilcal and Bone Marrow-derived MSCs (ATCC PCS-400030 and Mesenchymal Stem Cell Growth for Bone Marrow-derived MSCs (ATCC PCS-500-041). Cells were seeded at a density of 15,000 cells/well in a 96-well format.
(§2) To induce fibrogenic differentiation BM-MSCs were cultured in a medium composed by Dulbecco's Modified Eagle Medium, 2% horse serum (HS) (Sigma H1270) and 5-10 ng/ml TGF-beta-1 (PreproTech 100-21). Cells were cultured in basal media for 2 days before being switched to fibrogenic differentiation media for 5 days, after which they were taken down for downstream assays. Compound treatment was added when media was switched to fibrogenic differentiation media, cells were treated with 0.1% DMSO if not receiving compound.
(§3) Cells were fixed in 4% PFA for 10 min at RT. Fixed cells were washed three times in 1×PBS and incubated in permeabilization solution (0.5% Triton X-100 in 1×PBS) for 10 min. Unspecific binding were saturated by incubating samples in blocking solution (5% donkey serum in 1×PBS) for 1 h. The cells were incubated at RT for 1 hour with gentle shaking in the presence of primary antibody against, alpha-smooth muscle actin (1:1000, Sigma™ A5228). The cells were washed three times with 0.05% Tween-20 in 1×PBS and incubated, for 1 hour at RT, with host-specific secondary antibodies in addition to counterstaining for Alexa Fluor Plus 750 Phalloidin (1:2000, Invitrogen™, A30105) and DAPI (1:2000). Primary and secondary antibodies were diluted according to the manufacturer's recommendations in blocking solution+0.1% Triton X-100. Finally, the cells were washed three times with 0.05% Tween-20 in 1×PBS, washed twice with 1×PBS and stored at 4° C. Images were acquired on a Thermo Scientific™ CellInsight™ CX7LED high content analysis (HCA) imaging instrument using a 10× objective. Nine fields per well were captured for quantification.

In assay [2] the test system is Bone Marrow Derived Mesenchymal Stem Cells, human (BM-MSC); myofibroblast content. In words: Myofibroblast reduction phenotype in TGF-beta-1 fibrogenic differentiation culture (high-content imaging). Type of assay: cell-based. The procedure:
as §1, §2, §3
Columbus™ software (version 2.9.1, Perkin Elmer®) was used for analysis of acquired images. A custom analysis pipeline was constructed to quantify the percentage of myofibroblasts within the well. First, nuclei were segmented using “Method B” and intensity and morphology properties were calculated using standard settings. Second, viable nuclei were identified by gating on nuclei intensity, area, and roundness of the segmented objects. Next, a region of interest was then defined around the selected viable nuclei by expanding the outer boarder by […]. STAR morphology and SER texture properties were calculated within the region of interest for the alpha-smooth muscle actin and phalloidin channels using the following parameters: profile width=4 px, scale=1 px, Kernel normalization. The calculated morphology and texture properties were used to train a linear classifier consisting of two classes, myofibroblasts and mesenchymal stem cells, by selecting >100 objects in each negative control (DMSO) and positive control (fibrogenic differentiation media) conditions. The linear classifier was then applied to the untrained test wells using a batch analysis to calculate the percentage of myofibroblasts within each image using a formula output (myofibroblasts:number of objects/viable nuclei:number of objects)*100. Results were averaged across the nine fields imaged per well.
The initial six NOX4 inhibitors were assessed in replicate experiments for both potency of myofibroblast reducing activity and an associated IC50 for the myofibroblast reduction phenotype was determined (Table 1).

For the compound `CN(C)c1cccc(-c2c3c(=O)n(-c4ccccc4Cl)[nH]c3cc(=O)n2C)c1` [FTX1620, Setanaxib], in assay [1], the “phalloidin (F-actin) staining” value is “significant phalloidin staining”. Further, in assay [1] (FIG. 15), the “α-SMA immunofluorescence and phalloidin (F-actin) staining” value was “exhibited both α-SMA immunofluorescence and phalloidin (F-actin) staining”. Besides, the IC50 in assay [2] (Homo sapiens, BMMSC, first experiment, read-out: IC50 Phenotype (myofibroblast reduction)) was 0.0773 µM; in assay [2] (Homo sapiens, BMMSC, replicate experiment, read-out: IC50 Phenotype Replicate) it was 0.126 µM; in assay [2] (replicate experiment, read-out: IC50 Phenotype Replicate) it was 0.126 µM. For the same compound, in assay [2] (treated cells in culture), the “reduction of myofibroblast content (concentration-response)” value was “reduced the myofibroblast content of treated cells in a dose-responsive manner”.
